target: T1, human EP3 receptor (Homo sapiens, UniProt P43115); assay: Cellular in vitro assay for determining EP3 receptor activity (human EP3 cell line, sulprostone-stimulated calcium luminescence); type: cell-based; conditions: CHO cells expressing human EP3 and mitochondrial Clytin; antagonist mode, sulprostone at EC50; read-out: EP3 CHO mtCLY ANTAG IC50
T1 construct: expressed in transfected cells; host or cells: CHO K1 (Chinese Hamster Ovary), stably co-transfected with Galpha16 and mitochondrial clytin
T1 sequence (P43115 1-390): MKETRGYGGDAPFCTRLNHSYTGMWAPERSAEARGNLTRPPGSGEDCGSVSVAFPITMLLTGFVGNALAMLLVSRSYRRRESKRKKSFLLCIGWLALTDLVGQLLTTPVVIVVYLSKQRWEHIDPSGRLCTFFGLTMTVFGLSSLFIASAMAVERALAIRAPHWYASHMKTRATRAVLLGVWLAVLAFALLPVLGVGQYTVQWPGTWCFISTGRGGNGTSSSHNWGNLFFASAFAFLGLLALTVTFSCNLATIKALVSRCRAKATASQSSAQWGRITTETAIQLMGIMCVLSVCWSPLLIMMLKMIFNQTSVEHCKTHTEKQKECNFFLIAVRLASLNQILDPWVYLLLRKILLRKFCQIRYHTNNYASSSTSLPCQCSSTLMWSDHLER
Method: B-1. Cellular In Vitro Assay for Determining EP3 Receptor Activity
The identification of antagonists of the EP3 receptor from humans and rats as well as the quantification of the activity of the compounds of the invention was carried out using recombinant cell lines. These cell lines originally derive from a hamsters ovary epithelial cell (Chinese Hamster Ovary, CHO K1, ATCC: American Type Culture Collection, Manassas, Va. 20108, USA). The test cell lines constitutively express the human or rat EP3 receptors. The naturally Gαi-coupled human and rat EP3 receptors were stably co-transfected with Gα16 into cells that are also stably transfected with a mitochondrial form of the calcium-sensitive photoproteins Clytin (human EP3) or Photina (rat EP3), which, after reconstitution with the cofactor coelenterazine, emit light when there are increases in free calcium concentrations (Nature 1992, 358, 325-327; Gene 1995, 153 (2), 273-274). The resulting EP3 receptor cells react to stimulation of the recombinantly expressed EP3 receptors by the agonist sulprostone with intracellular release of calcium ions, which can be quantified by the resulting photoprotein luminescence. Antagonists inhibit the receptor signaling, leading to reduced calcium release and luminescence. The bioluminescence of the cell lines is detected using a suitable luminometer (Trends Pharmacol. Sci. 1996, 17, 235-237).
Human and Rat EP3 Cell Lines:
On the day before the assay, the cells are plated out in culture medium (OptiMEM, 1% FCS, 2 mM glutamine, 10 mM HEPES, 5 μg/ml coelenterazine) in 384-well microtiter plates and kept in a cell incubator (96% humidity, 5% v/v CO2, 37° C.). On the day of the assay, test compounds in various concentrations are placed for 10 minutes in the wells of the microtiter plate before the agonist sulprostone at EC50 concentration is added. The resulting light signal is measured immediately in a luminometer. All concentrations are measured in quadruples.

Row | IC50 [nM] | SMILES
1 | 0.69 | Cc1ccc(-c2cn3nc(C(=O)NCCC(O)C(F)(F)F)c(C4CC4)c3c(=O)[nH]2)cc1F (single isomer, unassigned) [6-367]
2 | 0.87 | Cc1ccc(-c2cn3nc(C(=O)NCCC(O)C(F)(F)F)c(C4CC4)c3c(=O)[nH]2)cc1F (single isomer, unassigned) [6-368]
3 | 2.7 | Cc1ccc(-c2cn3nc(C(=O)NCC(O)C(F)F)c(C4CC4)c3c(=O)[nH]2)cc1F (single isomer, unassigned) [6-371]
4 | 1.6 | Cc1ccc(-c2cn3nc(C(=O)NC(c4ccc(F)cc4)C4(O)CC4)c(C4CC4)c3c(=O)[nH]2)cc1F (single isomer, unassigned) [6-383]
5 | 8.5 | Cc1ccc(-c2cn3nc(C(=O)NC4CCN(CC(F)(F)F)C4)c(C4CC4)c3c(=O)[nH]2)cc1F (single isomer, unassigned) [6-390]
6 | 3.3 | Cc1ccc(-c2cn3nc(C(=O)NC4CCN(CC(F)(F)F)C4)c(C4CC4)c3c(=O)[nH]2)cc1F (single isomer, unassigned) [6-391]
7 | 3.05 | Cc1ccc(-c2cn3nc(C(=O)NCC(N)C(F)(F)F)c(C4CC4)c3c(=O)[nH]2)cc1F (single isomer, unassigned) [6-396]
8 | 3.45 | Cc1ccc(-c2cn3nc(C(=O)NCC(N)C(F)(F)F)c(C4CC4)c3c(=O)[nH]2)cc1F (single isomer, unassigned) [6-397]
9 | 4.7 | CCN1CCC(NC(=O)c2nn3cc(-c4ccc(C)c(F)c4)[nH]c(=O)c3c2C2CC2)(C(F)(F)F)C1 (single isomer, unassigned) [6-405]
10 | 23.5 | CCN1CCC(NC(=O)c2nn3cc(-c4ccc(C)c(F)c4)[nH]c(=O)c3c2C2CC2)(C(F)(F)F)C1 (single isomer, unassigned) [6-406]
11 | 1.1 | Cc1ccc(-c2cn3nc(C(=O)NCC(N)C(F)(F)F)c(C4CC4)c3c(=O)[nH]2)cc1C (single isomer, unassigned) [6-432]
12 | 0.76 | Cc1ccc(-c2cn3nc(C(=O)NCC(N)C(F)(F)F)c(C4CC4)c3c(=O)[nH]2)cc1C (single isomer, unassigned) [6-433]
13 | 0.84 | Cc1ccc(-c2cn3nc(C(=O)NCC(O)C(F)(F)F)c(C4CC4)c3c(=O)[nH]2)cc1C (single isomer, unassigned) [6-436]
14 | 0.77 | Cc1ccc(-c2cn3nc(C(=O)NCC(O)C(F)(F)F)c(C4CC4)c3c(=O)[nH]2)cc1C (single isomer, unassigned) [6-437]
15 | 4.75 | Cc1ccc(-c2cn3nc(C(=O)NC4CCN(CC(F)F)C4)c(C4CC4)c3c(=O)[nH]2)cc1C (single isomer, unassigned) [6-454]
16 | 9.35 | Cc1cc(-c2cn3nc(C(=O)NCC(O)C(F)(F)F)c(C4CC4)c3c(=O)[nH]2)ccc1F (single isomer, unassigned) [6-655]
17 | 3.55 | Cc1ccc(-c2cn3nc(C(=O)NCC(O)C(F)(F)F)c(C4CC4)c3c(=O)[nH]2)cc1F (single isomer, unassigned; enantiomer1) [Example 1-160, 3-Cyclopropyl-6-(3-fluoro-4-methylphenyl)-4-oxo-N-(3,3,3-trifluoro-2-hydroxpropyl)-4,5-dihydropyrazolo[1,5-a]pyrazine-2-carboxamide (enantiomer1)]

More lines, now with the values behind:

Row | SMILES | IC50 [nM]
18 | Cc1ccc(-c2cn3nc(C(=O)NC(C)c4ccc(O)cc4)cc3c(=O)[nH]2)cc1C (single isomer, unassigned) [6-349] | 0.88
19 | Cc1ccc(-c2cn3nc(C(=O)NC4(c5ccc(F)cc5)CCN(C)C4)cc3c(=O)[nH]2)cc1C (single isomer, unassigned) [6-363] | 46
20 | Cc1ccc(-c2cn3nc(C(=O)NC4(c5ccc(F)cc5)CCN(C)C4)cc3c(=O)[nH]2)cc1C (single isomer, unassigned) [6-364] | 6.45
21 | Cc1ccc(-c2cn3nc(C(=O)NC(c4ccc(F)cc4)C4(O)CC4)c(C4CC4)c3c(=O)[nH]2)cc1F (single isomer, unassigned) [6-382] | 0.78
22 | Cc1ccc(-c2cn3nc(C(=O)NCC(O)C(F)(F)F)c(C)c3c(=O)[nH]2)cc1F (single isomer, unassigned) [6-410] | 5.18
23 | Cc1ccc(-c2cn3nc(C(=O)NCC(O)C(F)(F)F)c(C)c3c(=O)[nH]2)cc1F (single isomer, unassigned) [6-411] | 32.5
24 | O=C(NCC(O)C(F)(F)F)c1nn2cc(-c3ccc(Cl)c(Cl)c3)[nH]c(=O)c2c1C1CC1 (single isomer, unassigned) [6-416] | 2.8
25 | O=C(NCC(O)C(F)(F)F)c1nn2cc(-c3ccc(Cl)c(Cl)c3)[nH]c(=O)c2c1C1CC1 (single isomer, unassigned) [6-417] | 1.85
26 | O=C(NC(c1ccc(F)cc1)C1(O)CC1)c1nn2cc(-c3ccc(Cl)c(Cl)c3)[nH]c(=O)c2c1C1CC1 (single isomer, unassigned) [6-423] | 0.62
27 | O=C(NC(c1ccc(F)cc1)C1(O)CC1)c1nn2cc(-c3ccc(Cl)c(Cl)c3)[nH]c(=O)c2c1C1CC1 (single isomer, unassigned) [6-424] | 0.68
28 | Cc1ccc(-c2cn3nc(C(=O)NC(CN(C)C)c4ccc(F)cc4)c(C4CC4)c3c(=O)[nH]2)cc1C (single isomer, unassigned) [6-445] | 7.1
29 | Cc1ccc(-c2cn3nc(C(=O)NC(CN(C)C)c4ccc(F)cc4)c(C4CC4)c3c(=O)[nH]2)cc1C (single isomer, unassigned) [6-446] | 8.05
30 | Cc1ccc(-c2cn3nc(C(=O)NC(C)CN4CCOCC4)c(C4CC4)c3c(=O)[nH]2)cc1C (single isomer, unassigned) [6-451] | 5.35
31 | Cc1ccc(-c2cn3nc(C(=O)NC(C)CN4CCOCC4)c(C4CC4)c3c(=O)[nH]2)cc1C (single isomer, unassigned) [6-452] | 6.2
32 | Cc1ccc(-c2cn3nc(C(=O)NC(c4ccc(C(F)(F)F)cc4)C(C)(C)O)c(C4CC4)c3c(=O)[nH]2)cc1C (single isomer, unassigned) [6-458] | 2.15
33 | Cc1ccc(-c2cn3nc(C(=O)NC(c4ccc(C(F)(F)F)cc4)C(C)(C)O)c(C4CC4)c3c(=O)[nH]2)cc1C (single isomer, unassigned) [6-459] | 5.6
34 | O=C(NC1CCN(C2CC2)C1)c1nn2cc(-c3ccc4ccccc4c3)[nH]c(=O)c2c1C(F)(F)F (single isomer, unassigned) [6-500] | 6.75
35 | O=C(NC1CCN(C2CC2)C1)c1nn2cc(-c3ccc4ccccc4c3)[nH]c(=O)c2c1C(F)(F)F (single isomer, unassigned) [6-501] | 5.7
36 | O=C(NC1CCN(CC(F)F)C1)c1nn2cc(-c3ccc4ccccc4c3)[nH]c(=O)c2c1C(F)(F)F (single isomer, unassigned) [6-519] | 6.9
37 | O=C(NC1CCN(CC(F)F)C1)c1nn2cc(-c3ccc4ccccc4c3)[nH]c(=O)c2c1C(F)(F)F (single isomer, unassigned) [6-520] | 3.15
38 | CC(CN1CCOCC1)NC(=O)c1nn2cc(-c3ccc4ccccc4c3)[nH]c(=O)c2c1C(F)(F)F (single isomer, unassigned) [6-523] | 10.9
39 | CC(CN1CCOCC1)NC(=O)c1nn2cc(-c3ccc4ccccc4c3)[nH]c(=O)c2c1C(F)(F)F (single isomer, unassigned) [6-524] | 7
40 | O=C(NCC(O)C(F)(F)F)c1nn2cc(-c3ccc4c(c3)OCCO4)[nH]c(=O)c2c1C(F)(F)F (single isomer, unassigned) [6-532] | 8.9
41 | O=C(NCC(O)C(F)(F)F)c1nn2cc(-c3ccc4c(c3)OCCO4)[nH]c(=O)c2c1C(F)(F)F (single isomer, unassigned) [6-533] | 5.55
42 | CC(NC(=O)c1cc2c(=O)[nH]c(-c3ccc4ccccc4c3)cn2n1)c1ccc(O)cc1 (single isomer, unassigned) [6-542] | 10.5
43 | CC(NC(=O)c1cc2c(=O)[nH]c(-c3ccc4ccccc4c3)cn2n1)c1ccc(O)cc1 (single isomer, unassigned) [6-543] | 3.3
44 | Cc1cc(-c2cn3nc(C(=O)NC(c4ccc(F)cc4)C4(O)CC4)c(C4CC4)c3c(=O)[nH]2)ccc1F (single isomer, unassigned) [6-651] | 1
45 | Cc1cc(-c2cn3nc(C(=O)NC(c4ccc(F)cc4)C4(O)CC4)c(C4CC4)c3c(=O)[nH]2)ccc1F (single isomer, unassigned) [6-652] | 10
